Entries after “also recorded” stand apart in the source; their conditions may differ. Read-outs that look alike come from different tables or passages of the source.
How the values were obtained:
mouse cannabinoid tetrad = assay: Mouse cannabinoid tetrad; conditions: mice, i.p.; WIN 2.5 and 5 mg/kg, 13a 5 and 10 mg/kg
[1] = target: human cannabinoid CB2 receptor (Homo sapiens, UniProt P34972); assay: Competitive radioligand binding, displacement of [3H]-CP55,940 from hCB2
[2] = target: human cannabinoid CB1 receptor (Homo sapiens, UniProt P21554); assay: biochemical; assay type: binding; conditions: for CB1/CB2 selectivity ratio CB1 versus CB2: from Ki values at hCB1 and hCB2
human cannabinoid CB1 receptor, sequence (P21554 whole entry): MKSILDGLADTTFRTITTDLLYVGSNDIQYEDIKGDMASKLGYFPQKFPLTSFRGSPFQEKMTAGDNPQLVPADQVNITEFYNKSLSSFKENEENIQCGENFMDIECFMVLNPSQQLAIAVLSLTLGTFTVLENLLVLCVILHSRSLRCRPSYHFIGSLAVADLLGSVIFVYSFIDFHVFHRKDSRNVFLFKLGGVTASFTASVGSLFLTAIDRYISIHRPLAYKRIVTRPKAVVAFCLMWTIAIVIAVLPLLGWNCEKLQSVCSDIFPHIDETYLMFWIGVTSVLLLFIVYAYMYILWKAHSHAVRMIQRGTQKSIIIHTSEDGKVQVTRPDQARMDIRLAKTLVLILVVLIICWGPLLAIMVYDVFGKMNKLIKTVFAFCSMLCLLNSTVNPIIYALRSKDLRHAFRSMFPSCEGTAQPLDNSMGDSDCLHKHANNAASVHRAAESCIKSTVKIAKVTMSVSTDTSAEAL

mouse vas deferens = assay: Isolated tissue assay: electrically evoked contractions of mouse vas deferens; conditions: 10^−7–1.8 × 10^−5 M, concentration-response curves

human cannabinoid CB2 receptor, sequence (P34972 whole entry): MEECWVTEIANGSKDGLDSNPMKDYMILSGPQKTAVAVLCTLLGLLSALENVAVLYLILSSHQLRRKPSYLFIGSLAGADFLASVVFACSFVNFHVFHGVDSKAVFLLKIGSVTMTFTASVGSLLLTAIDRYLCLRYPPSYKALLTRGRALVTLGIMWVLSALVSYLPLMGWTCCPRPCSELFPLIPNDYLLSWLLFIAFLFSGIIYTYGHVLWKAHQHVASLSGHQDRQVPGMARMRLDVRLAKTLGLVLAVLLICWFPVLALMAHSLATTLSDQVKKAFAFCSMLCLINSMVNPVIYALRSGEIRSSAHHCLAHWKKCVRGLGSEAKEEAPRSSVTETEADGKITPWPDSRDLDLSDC

In the case of Cc1c(C(=O)c2cccc3ccccc23)c2cccc3c2n1[C@H](CN1CCOCC1)CO3 [WIN55,212-2, reference compound], the “Antinociception in the hot-plate test (cannabinoid tetrad)” value (mouse cannabinoid tetrad) is reported as “induced antinociceptive effect in the hot-plate test”, the “Catalepsy on a ring (cannabinoid tetrad)” value (mouse cannabinoid tetrad) is reported as “catalepsy” and the “Locomotor activity on the rota-rod test (cannabinoid tetrad)” value (mouse cannabinoid tetrad) is reported as “reduction of the locomotor activity”. The “Rectal temperature / hypothermia (cannabinoid tetrad)” value (mouse cannabinoid tetrad) was “hypothermia”.

For CCCCCCC(C)(C)c1cc(O)c2c(c1)OC(C)(C)c1cn(CC)nc1-2 [Compound 13b, 7-(1,1-dimethylheptyl)-2-ethyl-2,4-dihydro-4,4-dimethylchromeno[4,3-c]pyrazol-9-ol], the Ki [1] was > 40 µM and the “CB1/CB2 selectivity ratio CB1 versus CB2” value [2] was >1000.

In the case of CCCCCc1cc(O)c2c(c1)OC(C)(C)c1cn(C)nc1-2 [Compound 8b, 2,4-dihydro-2,4,4-trimethyl-7-pentylchromeno[4,3-c]pyrazol-9-ol], the “Binding to CB2 receptor (in words)” value [1] is reported as “failed to bind to either CB1 or CB2 receptors”, the Ki [1] is reported as > 40 µM and the “Binding to CB1 receptor (in words)” value [2] is reported as “failed to bind to either CB1 or CB2 receptors”. For the same compound, the Ki [2] was 22.1 ± 1.41 µM.

In the case of CCCCCc1cc(O)c2c(c1)OC(C)(C)c1cn(CC)nc1-2 [Compound 9b, 2-Ethyl-2,4-dihydro-4,4-dimethyl-7-pentylchromeno[4,3-c]pyrazol-9-ol], the “Binding to CB2 receptor (in words)” value [1] is reported as “failed to bind to either CB1 or CB2 receptors”, the Ki [1] is reported as 4.45 ± 1.01 µM and the “Binding to CB1 receptor (in words)” value [2] is reported as “failed to bind to either CB1 or CB2 receptors”. For the same compound, the Ki [2] was > 40 µM.

With CCCCCCC(C)(C)c1cc(O)c2c(c1)OC(C)(C)c1cn(C)nc1-2 [Compound 12b, 7-(1,1-Dimethylheptyl)-2,4-dihydro-2,4,4-trimethylchromeno[4,3-c]pyrazol-9-ol] the Ki [1] was > 40 µM and the “CB1/CB2 selectivity ratio CB1 versus CB2” value [2] was >1000.

In the case of CCCCCCC(C)(C)c1cc(O)c2c(c1)OC(C)(C)c1cnn(-c3ccc(Cl)cc3Cl)c1-2 [Compound 15a, 1-(2,4-Dichlorophenyl)-7-(1,1-dimethylheptyl)-1,4-dihydro-4,4-dimethylchromeno[4,3-c]pyrazol-9-ol], the Ki [1] is reported as > 40 µM and the “CB1/CB2 selectivity ratio CB1 versus CB2” value [2] is reported as >1000.

With CCCCCCC(C)(C)c1cc(O)c2c(c1)OC(C)(C)c1cnn(-c3ccc(Cl)c(Cl)c3)c1-2 [Compound 14a, 1-(3,4-Dichlorophenyl)-7-(1,1-dimethylheptyl)-1,4-dihydro-4,4-dimethylchromeno[4,3-c]pyrazol-9-ol] the “Binding to CB2 receptor (in words)” value [1] was “reduced affinity for both receptors; also recorded: moderate affinity for CB2 receptor”, the “Binding to CB1 receptor (in words)” value [2] was “reduced affinity for both receptors; also recorded: loss of affinity for CB1” and the “CB1/CB2 selectivity ratio CB1 versus CB2” value [2] was 0.5.

CCCCCc1cc(O)c2c(c1)OC(C)(C)c1cn[nH]c1-2 [Compound 7, 1,4-Dihydro-4,4-dimethyl-7-pentylchromen[4,3-c]pyrazol-9-ol] was tested, and the “Binding to CB2 receptor (in words)” value [1] was “failed to bind to either CB1 or CB2 receptors”, the Ki ([1]; read-out: hCB2 Ki, [3H]-CP55940 radioligand, membranes of transfected HEK293 EBNA cells, mean ± SEM of at least three experiments) was 2.01 ± 0.5 µM and the “Binding to CB1 receptor (in words)” value [2] was “failed to bind to either CB1 or CB2 receptors”. For the same compound, the “CB1/CB2 selectivity ratio CB1 versus CB2” value [2] was 0.5 and the Ki ([2]; read-out: hCB1 Ki, [3H]-CP55940 radioligand, membranes of transfected HEK293 EBNA cells, mean ± SEM of at least three experiments) was 4.1 ± 0.8 µM.

For CCCCCc1cc(O)c2c(c1)OC(C)(C)c1cnn(CC)c1-2 [Compound 9a, 1-Ethyl-1,4-dihydro-4,4-dimethyl-7-pentylchromeno[4,3-c]pyrazol-9-ol], the “Binding to CB2 receptor (in words)” value [1] was “failed to bind to either CB1 or CB2 receptors”, the Ki [1] was > 40 µM and the “Binding to CB1 receptor (in words)” value [2] was “failed to bind to either CB1 or CB2 receptors”. It also gave a Ki [2] of 9.61 µM.

With CCCCCc1cc(O)c2c(c1)OC(C)(C)c1cnn(-c3ccc(Cl)c(Cl)c3)c1-2 [Compound 10a, 1-(3,4-Dichlorophenyl)-1,4-dihydro-4,4-dimethyl-7-pentylchromeno[4,3-c]pyrazol-9-ol] the Ki [1] was > 40 µM, the “Binding to CB1 receptor (in words)” value [2] was “binds weakly to the CB1 cannabinoid receptor” and the Ki [2] was 0.607 ± 0.151 µM.

CCCCCc1cc(O)c2c(c1)OC(C)(C)c1cnn(C)c1-2 [Compound 8a, 1,4-Dihydro-1,4,4-trimethyl-7-pentylchromeno[4,3-c]pyrazol-9-ol] was tested, and the “Binding to CB2 receptor (in words)” value [1] was “failed to bind to either CB1 or CB2 receptors”, the Ki [1] was 3.46 ± 1 µM and the “Binding to CB1 receptor (in words)” value [2] was “failed to bind to either CB1 or CB2 receptors”. The Ki [2] was 4.7 ± 1.2 µM and the “CB1/CB2 selectivity ratio CB1 versus CB2” value [2] was 0.7.

In the case of CCCCCCC(C)(C)c1cc(O)c2c(c1)OC(C)(C)c1cn[nH]c1-2 [Compound 11, 1,4-Dihydro-4,4-dimethyl-7-(1,1-dimethylheptyl)chromeno[4,3-c]pyrazol-9-ol], the Ki [1] is reported as > 40 µM and the “CB1/CB2 selectivity ratio CB1 versus CB2” value [2] is reported as >1000.

CCCCCCC(C)(C)c1cc(O)c2c(c1)OC(C)(C)c1cnn(CC)c1-2 [Compound 13a, 7-(1,1-Dimethylheptyl)-1-ethyl-1,4-dihydro-4,4-dimethylchromeno[4,3-c]pyrazol-9-ol] was tested, and the Ki [1] was > 40 µM, the “Effect on electrically evoked contractile response of mouse vas deferens” value (mouse vas deferens) was “highest effectiveness; also recorded: most effective cannabinoid agonist” and the “CB1/CB2 selectivity ratio CB1 versus CB2” value [2] was >1000. For the same compound, the “Antinociception in the hot-plate test (cannabinoid tetrad)” value (mouse cannabinoid tetrad) was “did not modify any of the signs of cannabinoid tetrad”, the “Catalepsy on a ring (cannabinoid tetrad)” value (mouse cannabinoid tetrad) was “did not modify any of the signs of cannabinoid tetrad” and the “Locomotor activity on the rota-rod test (cannabinoid tetrad)” value (mouse cannabinoid tetrad) was “did not modify any of the signs of cannabinoid tetrad”. The “Rectal temperature / hypothermia (cannabinoid tetrad)” value (mouse cannabinoid tetrad) was “did not modify any of the signs of cannabinoid tetrad”.

— paper PMC4049093 (ChemMedChem, 2012)
